PubChem BioAssay (NCI)
“And” between values parts separate entries of the source, which are not always exact repeats. Identical values can stand only once.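 96-well plates; 48 h exposure; 5 concentrations. Endpoints by linear interpolation between flanking doses. Not reached: highest tested concentration assigned. The concentration for 50% growth inhibition is given as GI50. TGI: concentration producing complete growth inhibition.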

Tests used:
Test in all cases: NCI tumour cell line growth inhibition, 48 h
CAKI-1 renal = tested on: CAKI-1 renal
HCC-2998 colon = tested on: HCC-2998 colon
K-562 leukemia = tested on: K-562 leukemia
MALME-3M melanoma = tested on: MALME-3M melanoma
MCF7 breast = tested on: MCF7 breast
NCI-H23 lung = tested on: NCI-H23 lung
NCI-H522 lung = tested on: NCI-H522 lung
OVCAR-5 ovarian = tested on: OVCAR-5 ovarian
SK-MEL-28 melanoma = tested on: SK-MEL-28 melanoma
SN12C renal = tested on: SN12C renal

Q: Which GI50 (CAKI-1 renal) does the source give for `O=C1NC(N/N=C\C(O)C(O)C(O)C(O)CO)=N/C1=C/c1ccccc1` (stereo not given) here?
A: Its GI50 is > 100 µM and 19.4 µM.

Q: And the TGI (CAKI-1 renal)?
A: Its TGI is > 100 µM and 38.1 µM.

Q: And the GI50 (HCC-2998 colon)?
A: The GI50 was > 100 µM and 13.5 µM.

Q: What about the TGI (HCC-2998 colon) of the same molecule?
A: The TGI was > 100 µM and 41.7 µM.

Q: What about the GI50 (K-562 leukemia) of the same molecule?
A: The GI50 was 67.6 µM and 33.8 µM and 28.8 µM.

Q: And the TGI (K-562 leukemia)?
A: Its TGI is greater than 100 µM.

Q: And the GI50 (MALME-3M melanoma)?
A: Its GI50 is > 100 µM and 19.3 µM.

Q: What about the TGI (MALME-3M melanoma) of the same molecule?
A: Its TGI is > 100 µM and 37.6 µM.

Q: And the GI50 (MCF7 breast)?
A: Its GI50 is 40.3 µM and 13.5 µM and > 61.4 µM.

Q: What about the TGI (MCF7 breast) of the same molecule?
A: Its TGI is > 100 µM and 30.7 µM.

Q: What about the GI50 (NCI-H23 lung) of the same molecule?
A: Its GI50 is > 100 µM and 19.3 µM.

Q: What about the TGI (NCI-H23 lung) of the same molecule?
A: Its TGI is > 100 µM and 36.5 µM.

Q: And the GI50 (NCI-H522 lung)?
A: The GI50 was 96.5 µM and 18.6 µM and > 100 µM.

Q: What about the TGI (NCI-H522 lung) of the same molecule?
A: Its TGI is > 100 µM and 40.5 µM.

Q: What about the GI50 (OVCAR-5 ovarian) of the same molecule?
A: The GI50 was > 100 µM and 24.4 µM.

Q: And the TGI (OVCAR-5 ovarian)?
A: The TGI was > 100 µM and 44.9 µM.

Q: And the GI50 (SK-MEL-28 melanoma)?
A: Its GI50 is 37.3 µM and 24 µM and > 100 µM.

Q: And the TGI (SK-MEL-28 melanoma)?
A: The TGI was greater than 100 µM.

Q: And the GI50 (SN12C renal)?
A: The GI50 was 75.4 µM and 15.5 µM and > 100 µM.

Q: And the TGI (SN12C renal)?
A: The TGI was > 100 µM and 36.3 µM.
